The values that follow come from patent US20030054535A1, “Endoglucanase mutants and mutant hydrolytic depolymerizing enzymes and uses thereof” (priority 1999, published 2003).

Holding throughout (type): biochemical
For assay [1], the target named is T1, Acidothermus cellulolyticus EI endoglucanase (Cel5A) catalytic domain, wild type (native), SEQ ID NO:3 of U.S. Pat. No. 5,536,655 (Acidothermus cellulolyticus, UniProt P54583).
T1 construct: the mutant and wild type Cel5A catalytic domains were purified using the purification methods described above; made in house; host or cells: E. coli XL1-blue
Put plainly: Inhibition by cellobiose of hydrolysis of 4-methylumbelliferyl-β-D-cellobioside (MUC), wild type. As to conditions: Ki for inhibition by cellobiose, substrate MUC 4 and 20 μM, 30 min, cellobiose 0 to 5 mM, Dixon plots. The procedure: (§1) The enzymes (0.682 ng) were incubated for 30 min with the substrate at each of two concentrations (4 and 20 μM), in the presence of D-cellobiose (Sigma, St. Louis) )at concentrations ranging from 0 to 5 mM for the wild type catalytic domain, and from 0 to 50 mM for the Y245G mutant. At the end of the incubation period, the reaction in each 1-mL assay mixture was terminated by addition of 2 mL of 0.5 M sodium carbonate, pH 10.0. The extent of hydrolysis was then determined from the fluorescence of the ionized product, 4-methylumbelliferone, as measured in a SPEX FLUOROLOG spectrofluorometer with excitation wavelength at 380 nm and emission wavelength at 455 nm. These studies established that under these conditions, […]. Inhibition constants were then determined by means of Dixon plots of reciprocal velocity versus inhibitor concentration (Segel, 1975).
(§2) The mutant Cel5A enzyme, Y245G, was generated by PCR mutagenesis, and the mutant and wild type Cel5A catalytic domains were purified using the purification methods described above. […] For this reason, the molar extinction coefficients of the recombinant enzymes were calculated by considering the specific change in amino acid composition.

The target in assay [2] is T2, Acidothermus cellulolyticus EI endoglucanase (Cel5A) catalytic domain variant Y245G, SEQ ID NO:3 (Acidothermus cellulolyticus, UniProt P54583, Y286G).
T2 construct: the mutant and wild type Cel5A catalytic domains were purified using the purification methods described above; made in house; host or cells: E. coli XL1-blue
As to the kind of experiment: Inhibition by cellobiose of hydrolysis of 4-methylumbelliferyl-β-D-cellobioside (MUC), Y245G mutant. The procedure: as §1, §2

For assay [3], the target named is T3, Acidothermus cellulolyticus EI endoglucanase (Cel5A) catalytic domain variant W42R, SEQ ID NO:1 (Acidothermus cellulolyticus, UniProt P54583, W83R).
T3 construct: the protein was genetically truncated near the beginning of the linker peptide; made in house; host or cells: E. coli XL1-blue
Put plainly: Michaelis-Menten kinetics of cellotriose hydrolysis (cellobiose release), EIW42R. As to conditions: relative to native enzyme. As to the method:
(§3) Each assay mixture was pre-incubated at 50 degrees C. for 10 min. prior to the addition of 0.00272 micromolar (0. 1092 microgram/mL) enzyme, which was also made up in 5 mM acetate buffer with 10 microgram/mL BSA. The final assay volume was 0.1 mL.
(§4) At set-time intervals, an aliquot of the reaction mixture was pulled and immediately analyzed for the release of cellobiose using a Dionex DX300 chromatography system and a Dionex PAD2 pulsed amperometric detector having a gold working electrode. The response of this detector was optimized for the detection of carbohydrates using a waveform defined by the following time and potential settings: t1=420 msec.; EI=+0.05 V; t2=180 msec.; E2=+0.75 V; t3=360 msec.; and E3=−0.15 V. Separation of the reaction products, from the substrate, was achieved on a Dionex CarboPac PA-1 analytical (4×250 mm) column equipped with CarboPac PA-1 ([…], 500 mM sodium hydroxide eluent, and a flow rate of 1.5 mL/min. The amount of cellobiose present for each time-point-sample was quantified by comparing the area of the cellobiose peak against a linear calibration curve. The kinetic constants were determined with a double-reciprocal-plot, where the reciprocal of the rate of cellobiose produced was plotted as a function of the inverse of the substrate concentration.
(§5) Michaelis-Menten kinetics of the mutant EI enzymes and the native enzyme were determined.

The target in assay [4] is T4, Acidothermus cellulolyticus EI endoglucanase (Cel5A) catalytic domain variant Y82R, SEQ ID NO:2 (Acidothermus cellulolyticus, UniProt P54583, Y123R).
T4 construct: the protein was genetically truncated near the beginning of the linker peptide; made in house; host or cells: E. coli XL1-blue
Put plainly: Michaelis-Menten kinetics of cellotriose hydrolysis (cellobiose release), EIY82R. Conditions: relative to native enzyme. As to the method: as §3, §4, §5

Several values for one entry are separate records, joined by “and”; a condition that tells them apart may be missing. Identical values can stand only once.

T1 sequence (P54583 42-400): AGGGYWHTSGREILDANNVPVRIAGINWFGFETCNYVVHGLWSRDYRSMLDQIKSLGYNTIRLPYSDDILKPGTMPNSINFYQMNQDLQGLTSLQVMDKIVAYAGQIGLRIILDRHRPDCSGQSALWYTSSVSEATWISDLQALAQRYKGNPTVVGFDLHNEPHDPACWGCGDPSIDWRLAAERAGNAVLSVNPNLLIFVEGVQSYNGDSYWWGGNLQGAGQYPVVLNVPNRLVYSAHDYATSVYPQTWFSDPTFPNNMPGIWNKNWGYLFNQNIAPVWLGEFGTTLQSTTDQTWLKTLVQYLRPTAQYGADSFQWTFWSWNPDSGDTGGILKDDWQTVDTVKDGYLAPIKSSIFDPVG
T2 sequence (P54583 42-399 Y286G): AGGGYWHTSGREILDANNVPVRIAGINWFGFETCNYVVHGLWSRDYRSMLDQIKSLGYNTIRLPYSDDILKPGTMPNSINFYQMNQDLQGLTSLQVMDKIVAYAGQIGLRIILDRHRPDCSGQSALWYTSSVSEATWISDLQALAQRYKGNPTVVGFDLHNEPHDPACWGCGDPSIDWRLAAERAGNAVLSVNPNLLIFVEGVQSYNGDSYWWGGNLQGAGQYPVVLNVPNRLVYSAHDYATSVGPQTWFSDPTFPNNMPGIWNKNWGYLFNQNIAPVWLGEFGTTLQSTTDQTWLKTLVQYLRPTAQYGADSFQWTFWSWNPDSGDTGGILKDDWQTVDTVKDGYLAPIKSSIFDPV
T4 sequence (P54583 42-399 Y123R): as the sequence (P54583 42-399 Y286G) above, with Y82R, G245Y counted along it
T3 sequence (P54583 42-399 W83R): as the sequence (P54583 42-399 Y286G) above, with W42R, G245Y counted along it

As usually defined, the Ki is the dissociation constant of the complex between target and ligand, obtained from inhibition or displacement. A higher Ki goes with weaker binding. For `OC[C@H]1O[C@@H](O[C@H]2[C@H](O)[C@@H](O)C(O)O[C@@H]2CO)[C@H](O)[C@@H](O)[C@@H]1O` (stereo partly drawn) [cellobiose, D-cellobiose], the Ki in assay [1] was 1.88 mM and 2 mM; in assay [2] (Ki for inhibition by cellobiose, substrate MUC 4 and 20 μM, 30 min, cellobiose 0 to 50 mM, Dixon plots), 29.7 mM and 30 mM. Also, the “decrease in apparent binding energy of cellobiose versus native enzyme” value in assay [2] (from increase in Ki, Y245G relative to wild type) is 1.7 kcal/mol and ~1.5 kcal/mol.

Turning to `OC[C@H]1O[C@@H](O[C@H]2[C@H](O)[C@@H](O)[C@H](O[C@H]3[C@H](O)[C@@H](O)C(O)O[C@@H]3CO)O[C@@H]2CO)[C@H](O)[C@@H](O)[C@@H]1O` (some centres unmarked) [cellotriose], the “Vmax, % higher than that of the native enzyme” value is given as “about 15%” in assay [3] and about 75% in assay [4].
